Test results: US20060281771A1, “SYNERGISTIC MODULATION OF FLT3 KINASE USING AMINOQUINOLINE AND AMINOQUINAZOLINE KINASE MODULATORS” (priority 2005, published 2006)

Tested on: MV4-11 cells
Test: Inhibition of MV4-11 cell proliferation (CellTiterGlo, 72 h)
Format: cell-based
Conditions: Homo sapiens; 72 h growth inhibition
Method: To assess the cellular potency of the FLT3 inhibitors of Formula I′, FLT3 specific growth inhibition was measured in the leukemic cell line MV4-11 (ATCC Number: CRL-9591). […] MV4-11 cells cannot grow and survive without active FLT3ITD.
To measure proliferation inhibition by test compounds, the luciferase based CellTiterGlo reagent (Promega), which quantifies total cell number based on total cellular ATP concentration, was used. Cells are plated at 10,000 cells per well in 100 ul of in RPMI media containing penn/strep, 10% FBS and 1 ng/ml GM-CSF or 1 ng/ml IL-3 for MV4-11 and Baf3 cells respectively.
Compound dilutions or 0.1% DMSO (vehicle control) are added to cells and the cells are allowed to grow for 72 hours at standard cell growth conditions (37° C., 5% CO2). For activity measurements in MV4-11 cells grown in 50% plasma, cells were plated at 10,000 cells per well in a 1:1 mixture of growth media and human plasma (final volume of 100 μL). To measure total cell growth an equal volume of CellTiterGlo reagent was added to each well, according to the manufacturer's instructions, and luminescence was quantified. Total cell growth was quantified as the difference in luminescent counts (relative light units, RLU) of cell number at Day 0 compared to total cell number at Day 3 (72 hours of growth and/or compound treatment). One hundred percent inhibition of growth is defined as an RLU equivalent to the Day 0 reading. Zero percent inhibition was defined as the RLU signal for the DMSO vehicle control at Day 3 of growth. All data points are an average of triplicate samples. […] Inhibition and IC50 data analysis was done with GraphPad Prism using a non-linear regression fit with a multiparamater, sigmoidal dose-response (variable slope) equation.
MV4-11 cells express the FLT3 internal tandem duplication mutation, and thus are entirely dependent upon FLT3 activity for growth. […] In contrast, the Baf3 cell proliferation is driven by the cytokine IL-3 and thus are used as a non-specific toxicity control for test compounds.

IC50 | Structure (SMILES)
> 10000 nM | CC(C)Oc1ccc(NC(=O)OC2CCN(c3ccnc4ccccc34)CC2)cc1 [Compound 41]
> 5000 nM | COc1cc2ncnc(N3CCC(NC(=O)Nc4ccc(N5CCOCC5)cc4)C3)c2cc1OC (centres unmarked) [Compound 43, 1-[1-(6,7-Dimethoxy-quinazolin-4-yl)-pyrrolidin-3-yl]-3-(4-morpholin-4-yl-phenyl)-urea]
3900 nM | COc1cc2ncnc(N3CCC(NC(=O)Nc4ccc(N5CCCCC5)cc4)C3)c2cc1OC (centres unmarked) [Compound 47, 1-[1-(6,7-Dimethoxy-quinazolin-4-yl)-pyrrolidin-3-yl]-3-(4-piperidin-1-yl-phenyl)-urea]
9400 nM | COc1cc2ncnc(N3CCC(NC(=O)Nc4ccc(Cl)cc4)CC3)c2cc1OC [Compound 61, 1-(4-Chloro-phenyl)-3-[1-(6,7-dimethoxy-quinazolin-4-yl)-piperidin-4-yl]-urea]
1500 nM | COc1cc2ncnc(N3CCC(NC(=O)Nc4ccc(OC5CCCC5)cc4)C3)c2cc1OC (centres unmarked) [Compound 53, 1-(4-Cyclopentyloxy-phenyl)-3-[1-(6,7-dimethoxy-quinazolin-4-yl)-pyrrolidin-3-yl]-urea]
1700 nM | COc1cc2ncnc(N3CCC(NC(=O)Nc4ccc(C5CCCCC5)cc4)C3)c2cc1OC (centres unmarked) [Compound 50, 1-(4-Cyclohexyl-phenyl)-3-[1-(6,7-dimethoxy-quinazolin-4-yl)-pyrrolidin-3-yl]-urea]
2500 nM | COc1cc2ncnc(N3CCC(NC(=O)Nc4ccc(Cl)cc4)C3)c2cc1OC (centres unmarked) [Compound 48, 1-(4-Chloro-phenyl)-3-[1-(6,7-dimethoxy-quinazolin-4-yl)-pyrrolidin-3-yl]-urea]
2100 nM | COc1cc2ncc(C#N)c(N3CCC(OC(=O)Nc4ccc(C(C)C)cc4)CC3)c2cc1OC [Compound 42, (4-Isopropyl-phenyl)-carbamic acid 1-(3-cyano-6,7-dimethoxy-quinolin-4-yl)-piperidin-4-yl ester]
740 nM | COc1cc2ncnc(N3CCC(COC(=O)Nc4ccc(OC5CCCC5)cc4)CC3)c2cc1OC [Compound 56, (4-Cyclopentyloxy-phenyl)-carbamic acid 1-(6,7-dimethoxy-quinazolin-4-yl)-piperidin-4-ylmethyl ester]
1500 nM | COc1cc2ncnc(N3CCC(OC(=O)Nc4ccc(OC5CCCC5)cc4)C3)c2cc1OC (centres unmarked) [Compound 54, (4-Cyclopentyloxy-phenyl)-carbamic acid 1-(6,7-dimethoxy-quinazolin-4-yl)-pyrrolidin-3-yl ester]
1100 nM | COc1cc2ncnc(N3CCC(NC(=O)Nc4ccc(OC5CCCC5)nc4)C3)c2cc1OC (centres unmarked) [Compound 45, 1-(6-Cyclopentyloxy-pyridin-3-yl)-3-[1-(6,7-dimethoxy-quinazolin-4-yl)-pyrrolidin-3-yl]-urea]
1200 nM | COc1cc2ncnc(N3CCC(NC(=O)Nc4ccc(Oc5ccccc5)cc4)C3)c2cc1OC (centres unmarked) [Compound 51, 1-[1-(6,7-Dimethoxy-quinazolin-4-yl)-pyrrolidin-3-yl]-3-(4-phenoxy-phenyl)-urea]
3500 nM | COc1cc2ncnc(N3CCC(NC(=O)Nc4ccc(N5CCCC5)nc4)C3)c2cc1OC (centres unmarked) [Compound 46, 1-[1-(6,7-Dimethoxy-quinazolin-4-yl)-pyrrolidin-3-yl]-3-(6-pyrrolidin-1-yl-pyridin-3-yl)-urea]

Structure (SMILES) | IC50
COc1cc2ncnc(N3CCC(NC(=O)Nc4ccc(OC5CCC5)nc4)C3)c2cc1OC (centres unmarked) [Compound 44, 1-(6-Cyclobutoxy-pyridin-3-yl)-3-[1-(6,7-dimethoxy-quinazolin-4-yl)-pyrrolidin-3-yl]-urea] | 1000 nM
